Measurements taken from patent US11542240B2, “STK19 inhibitors for treatment of cancer” (TRUSTEES OF BOSTON UNIVERSITY, priority 2018, dated 2023).
Like-named read-outs stand apart in the source and are kept apart here.

Tests used:
Test in all cases: biochemical
Type in all cases: binding
[1] = biological target: panel of 468 diverse kinases (Homo sapiens, UniProt P49137); settings: MAPKAPK2; 1000 nM; read-out: Percent Control
[2] = biological target: panel of 468 diverse kinases (Homo sapiens, UniProt Q9Y6R4); settings: MAP3K4; 1000 nM; read-out: Percent Control
[3] = biological target: panel of 468 diverse kinases (Homo sapiens, UniProt P23458); settings: 1000 nM, read-out: Percent Control
[4] = biological target: panel of 468 diverse kinases (Homo sapiens, UniProt Q8NFD2); settings: ANKK1; 1000 nM; read-out: Percent Control
[5] = biological target: panel of 468 diverse kinases (Homo sapiens, UniProt Q15139); settings: PRKD1; 1000 nM; read-out: Percent Control
[6] = biological target: panel of 468 diverse kinases (Homo sapiens, UniProt P08922); settings: ROS1; 1000 nM; read-out: Percent Control
[7] = biological target: panel of 468 diverse kinases (Homo sapiens, UniProt O14757); settings: CHEK1; 1000 nM; read-out: Percent Control
[8] = biological target: panel of 468 diverse kinases (Homo sapiens, UniProt P24723); settings: PRKCH; 1000 nM; read-out: Percent Control
[9] = biological target: panel of 468 diverse kinases (Homo sapiens, UniProt P10721); settings: 1000 nM, read-out: Percent Control
[10] = biological target: panel of 468 diverse kinases (Homo sapiens, UniProt Q9UBE8); settings: NLK; 1000 nM; read-out: Percent Control
[11] = biological target: panel of 468 diverse kinases (Homo sapiens, UniProt Q15569); settings: TESK1; 1000 nM; read-out: Percent Control
[12] = biological target: panel of 468 diverse kinases (Homo sapiens, UniProt Q08881); settings: ITK; 1000 nM; read-out: Percent Control
[13] = biological target: panel of 468 diverse kinases (Homo sapiens, UniProt P00519, T315I); settings: 1000 nM, read-out: Percent Control
[14] = biological target: panel of 468 diverse kinases (Homo sapiens, UniProt Q05397); settings: FAK; 1000 nM; read-out: Percent Control
[15] = biological target: panel of 468 diverse kinases (Homo sapiens, UniProt P00533, L858R/T790M); settings: EGFR(L858R, T790M); 1000 nM; read-out: Percent Control
[16] = biological target: panel of 468 diverse kinases (Homo sapiens, UniProt P00533, L858R); settings: EGFR(L858R); 1000 nM; read-out: Percent Control
[17] = biological target: panel of 468 diverse kinases (Homo sapiens, UniProt P12931); settings: SRC; 1000 nM; read-out: Percent Control
[18] = biological target: panel of 468 diverse kinases (Homo sapiens, UniProt P51957); settings: NEK4; 1000 nM; read-out: Percent Control
[19] = biological target: panel of 468 diverse kinases (Homo sapiens, UniProt P10721, D816V); settings: KIT(D816V); 1000 nM; read-out: Percent Control
[20] = biological target: panel of 468 diverse kinases (Homo sapiens, UniProt Q99683); settings: ASK1; 1000 nM; read-out: Percent Control
[21] = biological target: panel of 468 diverse kinases (Homo sapiens, UniProt P30291); settings: WEE1; 1000 nM; read-out: Percent Control
[22] = biological target: panel of 468 diverse kinases (Homo sapiens, UniProt P36507); settings: MEK2; 1000 nM; read-out: Percent Control
[23] = biological target: panel of 468 diverse kinases (Homo sapiens, UniProt P36894); settings: BMPRIV; 1000 nM; read-out: Percent Control
[24] = biological target: panel of 468 diverse kinases (Homo sapiens, UniProt P36888, D835H); settings: FLT3(D835H); 1000 nM; read-out: Percent Control
[25] = biological target: panel of 468 diverse kinases (Homo sapiens, UniProt Q8IU85); settings: CAMK1D; 1000 nM; read-out: Percent Control
[26] = biological target: panel of 468 diverse kinases (Homo sapiens, UniProt P42336, I800L); settings: PIK3CA(I800L); 1000 nM; read-out: Percent Control
[27] = biological target: panel of 468 diverse kinases (Homo sapiens, UniProt Q9UM73, L1196M); settings: ALK(L1196M); 1000 nM; read-out: Percent Control
[28] = biological target: panel of 468 diverse kinases (Homo sapiens, UniProt Q9P0L2); settings: MARK1; 1000 nM; read-out: Percent Control
[29] = biological target: panel of 468 diverse kinases (Homo sapiens, UniProt P36888); settings: 1000 nM, read-out: Percent Control
[30] = biological target: panel of 468 diverse kinases (Homo sapiens, UniProt Q9NQU5); settings: PAK6; 1000 nM; read-out: Percent Control

panel of 468 diverse kinases (Homo sapiens, UniProt P10721), sequence (P10721 26-976 limits assumed): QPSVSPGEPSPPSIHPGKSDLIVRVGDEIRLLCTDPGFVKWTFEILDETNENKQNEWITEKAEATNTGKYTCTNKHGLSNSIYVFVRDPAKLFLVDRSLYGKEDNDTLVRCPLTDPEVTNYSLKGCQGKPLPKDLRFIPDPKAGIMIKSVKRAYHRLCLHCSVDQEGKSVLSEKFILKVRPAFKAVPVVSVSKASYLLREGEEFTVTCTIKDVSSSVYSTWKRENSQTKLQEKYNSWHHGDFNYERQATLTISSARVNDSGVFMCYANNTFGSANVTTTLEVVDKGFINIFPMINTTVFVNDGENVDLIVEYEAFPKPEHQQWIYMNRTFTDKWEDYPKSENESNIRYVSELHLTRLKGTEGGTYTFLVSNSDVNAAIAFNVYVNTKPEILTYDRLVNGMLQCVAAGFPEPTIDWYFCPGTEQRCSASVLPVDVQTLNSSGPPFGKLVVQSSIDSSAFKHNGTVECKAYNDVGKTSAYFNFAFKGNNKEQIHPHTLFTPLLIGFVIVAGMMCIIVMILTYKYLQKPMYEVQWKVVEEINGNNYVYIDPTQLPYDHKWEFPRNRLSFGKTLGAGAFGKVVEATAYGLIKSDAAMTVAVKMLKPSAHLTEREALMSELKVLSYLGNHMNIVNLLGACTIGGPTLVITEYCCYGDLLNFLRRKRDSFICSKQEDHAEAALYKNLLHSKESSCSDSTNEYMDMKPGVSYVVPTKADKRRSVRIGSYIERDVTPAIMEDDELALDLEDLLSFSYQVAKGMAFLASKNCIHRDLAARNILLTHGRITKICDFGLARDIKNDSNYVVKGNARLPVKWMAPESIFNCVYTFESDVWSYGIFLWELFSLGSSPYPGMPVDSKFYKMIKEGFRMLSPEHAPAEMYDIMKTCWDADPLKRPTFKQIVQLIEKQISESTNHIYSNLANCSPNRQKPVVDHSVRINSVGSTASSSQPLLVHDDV
panel of 468 diverse kinases (Homo sapiens, UniProt P00533, L858R/T790M), sequence (P00533 25-1210 T790M/L858R limits assumed): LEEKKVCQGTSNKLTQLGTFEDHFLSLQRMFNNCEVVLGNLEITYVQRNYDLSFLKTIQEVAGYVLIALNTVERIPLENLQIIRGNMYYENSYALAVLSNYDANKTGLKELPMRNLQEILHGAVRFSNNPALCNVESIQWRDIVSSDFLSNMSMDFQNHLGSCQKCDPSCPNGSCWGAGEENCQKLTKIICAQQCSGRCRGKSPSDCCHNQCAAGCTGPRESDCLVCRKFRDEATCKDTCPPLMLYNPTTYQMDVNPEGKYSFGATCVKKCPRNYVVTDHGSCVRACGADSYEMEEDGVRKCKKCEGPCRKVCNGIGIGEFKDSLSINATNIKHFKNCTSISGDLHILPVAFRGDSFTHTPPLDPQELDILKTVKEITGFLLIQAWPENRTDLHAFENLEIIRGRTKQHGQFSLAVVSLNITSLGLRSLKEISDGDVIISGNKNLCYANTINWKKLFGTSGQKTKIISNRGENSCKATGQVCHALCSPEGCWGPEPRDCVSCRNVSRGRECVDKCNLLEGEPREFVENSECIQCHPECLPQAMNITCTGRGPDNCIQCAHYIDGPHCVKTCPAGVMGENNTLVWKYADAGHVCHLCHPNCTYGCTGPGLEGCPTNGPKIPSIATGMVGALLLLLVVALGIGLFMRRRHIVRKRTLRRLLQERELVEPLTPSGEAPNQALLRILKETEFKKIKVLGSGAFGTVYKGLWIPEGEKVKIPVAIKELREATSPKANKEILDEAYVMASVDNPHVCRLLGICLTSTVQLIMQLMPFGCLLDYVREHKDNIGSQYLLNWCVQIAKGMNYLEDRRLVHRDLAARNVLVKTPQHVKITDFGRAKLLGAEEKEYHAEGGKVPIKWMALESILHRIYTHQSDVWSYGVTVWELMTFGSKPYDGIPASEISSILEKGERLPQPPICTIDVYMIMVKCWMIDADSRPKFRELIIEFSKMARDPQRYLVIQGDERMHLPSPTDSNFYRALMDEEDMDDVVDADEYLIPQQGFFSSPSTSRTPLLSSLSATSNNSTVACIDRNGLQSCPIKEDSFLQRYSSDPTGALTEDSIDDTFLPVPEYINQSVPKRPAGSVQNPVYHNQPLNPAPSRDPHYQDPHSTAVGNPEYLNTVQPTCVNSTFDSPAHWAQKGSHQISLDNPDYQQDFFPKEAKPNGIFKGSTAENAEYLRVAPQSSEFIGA
panel of 468 diverse kinases (Homo sapiens, UniProt P08922), sequence (P08922 28-2347 limits assumed): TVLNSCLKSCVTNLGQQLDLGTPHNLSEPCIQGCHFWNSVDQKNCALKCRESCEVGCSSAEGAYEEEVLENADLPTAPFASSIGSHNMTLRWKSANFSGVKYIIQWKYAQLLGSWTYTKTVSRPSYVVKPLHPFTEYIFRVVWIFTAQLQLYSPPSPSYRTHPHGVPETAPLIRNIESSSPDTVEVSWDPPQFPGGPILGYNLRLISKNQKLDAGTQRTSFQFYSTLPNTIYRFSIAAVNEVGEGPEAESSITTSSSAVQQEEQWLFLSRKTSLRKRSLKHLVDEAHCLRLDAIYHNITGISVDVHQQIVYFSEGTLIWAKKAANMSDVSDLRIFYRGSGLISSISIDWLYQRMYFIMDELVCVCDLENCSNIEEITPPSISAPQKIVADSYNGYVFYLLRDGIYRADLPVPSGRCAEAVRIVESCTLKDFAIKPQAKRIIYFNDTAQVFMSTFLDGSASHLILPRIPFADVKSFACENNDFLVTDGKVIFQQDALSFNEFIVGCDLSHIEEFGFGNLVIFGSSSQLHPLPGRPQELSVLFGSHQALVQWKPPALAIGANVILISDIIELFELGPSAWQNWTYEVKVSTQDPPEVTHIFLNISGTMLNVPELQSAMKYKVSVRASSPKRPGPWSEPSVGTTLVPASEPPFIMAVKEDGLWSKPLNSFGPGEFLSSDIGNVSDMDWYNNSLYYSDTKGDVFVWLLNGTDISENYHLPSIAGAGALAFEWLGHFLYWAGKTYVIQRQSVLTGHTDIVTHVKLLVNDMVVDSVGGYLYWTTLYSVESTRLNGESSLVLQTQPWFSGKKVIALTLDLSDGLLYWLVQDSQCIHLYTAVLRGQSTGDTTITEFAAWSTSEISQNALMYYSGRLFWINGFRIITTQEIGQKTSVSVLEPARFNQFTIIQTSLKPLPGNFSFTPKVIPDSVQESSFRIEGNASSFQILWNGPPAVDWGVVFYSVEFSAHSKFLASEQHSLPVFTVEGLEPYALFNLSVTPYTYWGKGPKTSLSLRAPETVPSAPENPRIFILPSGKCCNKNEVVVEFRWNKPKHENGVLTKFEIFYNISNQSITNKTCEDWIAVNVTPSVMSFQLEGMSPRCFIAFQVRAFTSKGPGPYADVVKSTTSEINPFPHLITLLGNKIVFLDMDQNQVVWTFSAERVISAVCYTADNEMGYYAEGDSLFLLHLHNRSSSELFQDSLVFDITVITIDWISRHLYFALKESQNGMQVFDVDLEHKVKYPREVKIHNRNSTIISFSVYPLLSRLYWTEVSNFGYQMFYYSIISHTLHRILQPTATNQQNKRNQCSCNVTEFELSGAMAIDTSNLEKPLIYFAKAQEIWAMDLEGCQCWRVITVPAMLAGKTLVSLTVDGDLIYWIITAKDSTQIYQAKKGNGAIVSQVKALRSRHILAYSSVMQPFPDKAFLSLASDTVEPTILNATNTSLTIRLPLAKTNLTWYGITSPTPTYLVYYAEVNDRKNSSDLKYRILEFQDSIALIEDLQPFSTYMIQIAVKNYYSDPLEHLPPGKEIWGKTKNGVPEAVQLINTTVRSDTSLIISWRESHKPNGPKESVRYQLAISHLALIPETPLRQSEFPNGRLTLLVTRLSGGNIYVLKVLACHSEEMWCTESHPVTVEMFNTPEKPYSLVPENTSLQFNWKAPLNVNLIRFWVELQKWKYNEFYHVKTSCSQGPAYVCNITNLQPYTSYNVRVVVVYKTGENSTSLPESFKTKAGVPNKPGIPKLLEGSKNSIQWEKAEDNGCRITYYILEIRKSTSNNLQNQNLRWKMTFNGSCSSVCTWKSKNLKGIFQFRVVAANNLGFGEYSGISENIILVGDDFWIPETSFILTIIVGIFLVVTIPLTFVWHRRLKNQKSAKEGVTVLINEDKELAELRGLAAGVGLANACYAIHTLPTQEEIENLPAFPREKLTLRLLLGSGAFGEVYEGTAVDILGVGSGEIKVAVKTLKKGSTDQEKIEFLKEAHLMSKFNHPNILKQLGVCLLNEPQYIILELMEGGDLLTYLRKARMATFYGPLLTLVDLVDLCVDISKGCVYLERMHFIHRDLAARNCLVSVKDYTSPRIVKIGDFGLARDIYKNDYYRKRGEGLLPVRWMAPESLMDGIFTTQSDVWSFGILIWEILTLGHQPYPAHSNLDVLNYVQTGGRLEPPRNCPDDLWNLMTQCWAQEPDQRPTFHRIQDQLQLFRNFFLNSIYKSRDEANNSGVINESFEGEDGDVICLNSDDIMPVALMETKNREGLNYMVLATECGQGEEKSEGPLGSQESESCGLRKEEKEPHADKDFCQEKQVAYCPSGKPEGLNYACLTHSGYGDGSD
panel of 468 diverse kinases (Homo sapiens, UniProt P10721, D816V), sequence (P10721 26-976 D816V limits assumed): as the sequence (P10721 26-976 limits assumed) above, with D791V counted along it
panel of 468 diverse kinases (Homo sapiens, UniProt P36894), sequence (P36894 24-532 limits assumed): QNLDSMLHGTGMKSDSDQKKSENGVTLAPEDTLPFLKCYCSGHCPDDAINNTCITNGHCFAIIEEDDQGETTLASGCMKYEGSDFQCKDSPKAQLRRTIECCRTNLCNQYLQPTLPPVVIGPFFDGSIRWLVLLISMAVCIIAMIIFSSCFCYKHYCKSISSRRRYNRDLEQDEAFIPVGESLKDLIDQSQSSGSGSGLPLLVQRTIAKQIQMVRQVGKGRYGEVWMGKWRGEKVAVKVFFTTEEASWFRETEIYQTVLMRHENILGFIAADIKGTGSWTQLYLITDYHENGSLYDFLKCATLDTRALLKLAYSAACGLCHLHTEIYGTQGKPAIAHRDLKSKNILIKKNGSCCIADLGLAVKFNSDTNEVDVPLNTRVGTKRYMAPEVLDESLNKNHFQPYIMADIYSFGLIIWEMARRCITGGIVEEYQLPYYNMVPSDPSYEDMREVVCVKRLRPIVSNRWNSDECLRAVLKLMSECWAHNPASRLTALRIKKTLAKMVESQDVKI

`COc1cc2nc(NC3CC3)nc(NC3CCN(C(C)C)CC3)c2cc1OC` [Formula IV] was tested, and the remaining activity at 1 µM [1] was 100%, the remaining activity at 1 µM [2] was 100% and the remaining activity at 1 µM ([3]; JAK1(JH1domain-catalytic)) was 96%. For the same compound, the remaining activity at 1 µM ([3]; JAK1(JH2domain-pseudokinase)) was 51%, the remaining activity at 1 µM [4] was 50% and the remaining activity at 1 µM [5] was 100%. For the same compound, the remaining activity at 1 µM [6] was 90%, the remaining activity at 1 µM [7] was 93% and the remaining activity at 1 µM [8] was 81%. It also gave a remaining activity at 1 µM ([9]; KIT-autoinhibited) of 57%, a remaining activity at 1 µM ([9]; KIT) of 95% and a remaining activity at 1 µM [10] of 100%. It also gave a remaining activity at 1 µM [11] of 100%, a remaining activity at 1 µM [12] of 96% and a remaining activity at 1 µM ([13]; ABL1(T315I)-nonphosphorylated) of 100%. For the same compound, the remaining activity at 1 µM ([13]; ABL1(T315I)-phosphorylated) was 49%, the remaining activity at 1 µM [14] was 88% and the remaining activity at 1 µM [15] was 35%. For the same compound, the remaining activity at 1 µM [16] was 99%, the remaining activity at 1 µM [17] was 97% and the remaining activity at 1 µM [18] was 69%. The remaining activity at 1 µM [19] was 100%, the remaining activity at 1 µM [20] was 75% and the remaining activity at 1 µM [21] was 100%. It also gave a remaining activity at 1 µM [22] of 58%, a remaining activity at 1 µM [23] of 100% and a remaining activity at 1 µM [24] of 81%. For the same compound, the remaining activity at 1 µM [25] was 100%, the remaining activity at 1 µM [26] was 94% and the remaining activity at 1 µM [27] was 78%. For the same compound, the remaining activity at 1 µM [28] was 92%, the remaining activity at 1 µM ([29]; FLT3-autoinhibited) was 51% and the remaining activity at 1 µM ([29]; FLT3) was 100%. The remaining activity at 1 µM [30] was 91%.
